This is an account of results in US5945404A, “21-Substituted steroid compound” (priority 1993, dated 1999).

The test system of data set [1] is croton oil-induced granuloma. Briefly: Croton Oil-induced Granuloma (granuloma pouch). The class given is in vivo, male Sprague-Dawley rats. The following applies: for inhibition in vivo at 1 mg / inhibition in vivo at 0.01 mg / inhibition in vivo at 0.1 mg: Rattus norvegicus, 168 h. The procedure: Groups of 5 male Sprague-Dawley rats each weighing 160-180 g were used. Under ether anesthesia, the dorsum of animals was closely clipped, and air sac was formed by injecting air (20 ml) subcutaneously. Next day cotton seed oil containing 1% croton oil was injected into the air sac. Drugs to be tested were suspended in the cotton seed oil containing 1% croton oil, and administered. After 7 days, the blood was taken from the animal under ether anesthesia. Then, the granuloma pouch fluid (exudate) was collected, and the fluid volume was measured. The pouch wall formed around granuloma and thymus were also excised and weighed.

The next data set relates to granuloma. Nature of the data set: Inhibitory Effects on Granuloma Growth (Paper Disk Method). Format: in vivo, male Sprague-Dawley rats. Particulars: Rattus norvegicus, topical, 168 h, rat, paper disk; ointment 0.1%, 50 mg once a day, 7 days; read-out: Weight of granuloma, per cent of change of the controls. The procedure: Ointment to be tested was prepared usign white soft paraffin as the base and containing dexamethasone at 0.1% concentration.
Groups of 5 male Sprague-Dawley rats each weighing 150-170 g were used. Under ether anesthesia, the dorsum of animals was closely clipped, and medianly incised. After each one pre-weighed paper disk (8-mm diameter, 1-mm thick, weighing about 30 mg; Toyo-Roshi filter paper) was inserted subcutaneously into both sides of the dorsal incision, the incision was sutured. In order to prevent bacterial infection, penicillin G potassium salt (2,000 units) per rat was intramascularly injected after the surgery. Base or ointment to be tested (50 mg each) was rubbed carefully into the skin over the paper disk inserted site, for 30 seconds once a day for the duration of 7 days. Rats were slipped plastic cangs on to prevent them from licking the drug applied sites. On the 8th day of the test, rats were sacrificed under ether anesthesia, and granulomas were carefully excised. Granulomas were dried at 40° C. for 24 h, and their dry weights were recorded.
Inhibitory effects of dexamethasone derivatives on the weight increase of granuloma of experimental animals as compared with those of control animals are shown as per cent of inhibition ov er the control in Table 1. Figures wihth asterisks in the table indicate signfiicant difference. The same will be applied to the following other tables.

Setting [2] is: 1.0 mg/rat, 7 days, read-out: Effects on granuloma weight, per cent of inhibition over the control.
[3] abbreviates: 1.0 mg/rat, 7 days, read-out: Effects on pouch fluid (exudate) volume, per cent of inhibition over the control.
[4] abbreviates: 0.01 mg/rat, 7 days, read-out: Effects on granuloma weight, per cent of inhibition over the control.
Where [5] appears, read: 0.01 mg/rat, 7 days, read-out: Effects on pouch fluid (exudate) volume, per cent of inhibition over the control.
Setting [6] is: 0.1 mg/rat, 7 days, read-out: Effects on granuloma weight, per cent of inhibition over the control.
The mark [7] stands for this setting: 0.1 mg/rat, 7 days, read-out: Effects on pouch fluid (exudate) volume, per cent of inhibition over the control.
Setting [8] is: read-out: Effects on granuloma weight, per cent of inhibition over the control.

Where “and” joins values, the source holds several entries; their conditions need not be identical. Equal values may be shown once. Read-outs that look alike come from different tables or passages of the source.

For `CCC(=O)O[C@]1(C(=O)COC(C)=O)[C@@H](C)C[C@H]2[C@@H]3CCC4=CC(=O)C=C[C@]4(C)[C@@]3(F)[C@@H](O)C[C@@]21C` [Betamethasone acetate propionate, reference compound], the “Effects on granuloma weight, per cent of inhibition over the control” value was found to be 21.2 ± 6.4 per cent in data set [1] (0.01 mg/rat, 7 days) and 26.0 ± 6.9 per cent in data set [1] (0.1 mg/rat, 7 days). In addition, in data set [1] (rat, in vivo), the “Effects on pouch fluid (exudate) volume, per cent of inhibition over the control” value was 27.6 ± 8.1 and 43.6 ± 4.7.

Turning to `CCCCC(=O)O[C@]1(C(=O)CO)[C@@H](C)C[C@H]2[C@@H]3CCC4=CC(=O)C=C[C@]4(C)[C@@]3(F)[C@@H](O)C[C@@]21C` [Betamethasone valerate, reference compound], the “Effects on thymus weight, per cent of inhibition over the control thymus weight” value in data set [1] (1.0 mg/rat, 7 days) is 37.0 ± 3.0 per cent and 58.9 ± 3.3 per cent. Besides, the values for the inhibition in vivo at 1 mg in data set [1] (setting [2]) and in data set [1] (setting [3]) were 18.7 ± 11.7% and 23.9 ± 12.1%, respectively.

Take `Cc1ccc(C(=O)OC[C@H]2O[C@H](OCC(=O)[C@@]3(O)[C@H](C)C[C@H]4[C@@H]5CCC6=CC(=O)C=C[C@]6(C)[C@@]5(F)[C@@H](O)C[C@@]43C)[C@H](OC(=O)c3ccc(C)cc3)[C@@H](OC(=O)c3ccc(C)cc3)[C@@H]2OC(=O)c2ccc(C)cc2)cc1` [Compound 4α]: the change in vivo at 0.1 %, 50 mg in the data set on granuloma is -0.6 ± 5.1%.

Turning to `Cc1ccc(C(=O)OC[C@H]2O[C@@H](OCC(=O)[C@@]3(O)[C@H](C)C[C@H]4[C@@H]5CCC6=CC(=O)C=C[C@]6(C)[C@@]5(F)[C@@H](O)C[C@@]43C)[C@H](OC(=O)c3ccc(C)cc3)[C@@H](OC(=O)c3ccc(C)cc3)[C@@H]2OC(=O)c2ccc(C)cc2)cc1` [Compound 4β], in the data set with granuloma, the change in vivo at 0.1 %, 50 mg is -7.9 ± 5%.

Turning to `Cc1ccc(C(=O)OC[C@H]2O[C@H](OCC(=O)[C@@]3(O)[C@H](C)C[C@H]4[C@@H]5CCC6=CC(=O)C=C[C@]6(C)[C@@]5(F)[C@@H](O)C[C@@]43C)[C@H](OC(=O)c3ccc(C)cc3)[C@@H](OC(=O)c3ccc(C)cc3)[C@H]2OC(=O)c2ccc(C)cc2)cc1` [Compound 14α], the change in vivo at 0.1 %, 50 mg in the data set with granuloma came out at 5.7 ± 1.9%.

Regarding `Cc1ccc(C(=O)OC[C@H]2O[C@@H](OCC(=O)[C@@]3(O)[C@H](C)C[C@H]4[C@@H]5CCC6=CC(=O)C=C[C@]6(C)[C@@]5(F)[C@@H](O)C[C@@]43C)[C@H](OC(=O)c3ccc(C)cc3)[C@@H](OC(=O)c3ccc(C)cc3)[C@H]2OC(=O)c2ccc(C)cc2)cc1` [Compound 14β], in the data set with granuloma, the change in vivo at 0.1 %, 50 mg was -8.7 ± 7.2%.

Regarding `Cc1ccc(C(=O)OC[C@H]2O[C@H](OCC(=O)[C@@]3(O)[C@H](C)C[C@H]4[C@@H]5CCC6=CC(=O)C=C[C@]6(C)[C@@]5(F)[C@@H](O)C[C@@]43C)[C@@H](OC(=O)c3ccc(C)cc3)[C@@H](OC(=O)c3ccc(C)cc3)[C@@H]2OC(=O)c2ccc(C)cc2)cc1` [Compound 24α, mannosyldexamethasone], the change in vivo at 0.1 %, 50 mg in the data set on granuloma is -3.7 ± 4.5%.

On to `Cc1ccc(C(=O)OC[C@H]2O[C@@H](OCC(=O)[C@@]3(O)[C@@H](C)C[C@H]4[C@@H]5CCC6=CC(=O)C=C[C@]6(C)[C@@]5(F)[C@@H](O)C[C@@]43C)[C@H](OC(=O)c3ccc(C)cc3)[C@@H](OC(=O)c3ccc(C)cc3)[C@@H]2OC(=O)c2ccc(C)cc2)cc1` [Compound 91β, Glucosylbetamethasone (per Tol)], for which the results for the inhibition in vivo at 0.01 mg in data set [1] (setting [4]) and in data set [1] (setting [5]) were 17.1 ± 6.7% and 25.3 ± 5.3%, respectively. The inhibition in vivo at 0.1 mg in data set [1] (setting [6]) was found to be 6.9 ± 5.1%; in data set [1] (setting [7]), 18.4 ± 6.1%. In addition, the inhibition in vivo at 1 mg in data set [1] (setting [2]) is 4.3 ± 8.2%; in data set [1] (setting [3]) it was 18.9 ± 8.8%.

Consider `C[C@H]1C[C@H]2[C@@H]3CCC4=CC(=O)C=C[C@]4(C)[C@@]3(F)[C@@H](O)C[C@]2(C)[C@@]1(O)C(=O)CO[C@@H]1O[C@H](COC(=O)c2ccccc2)[C@@H](OC(=O)c2ccccc2)[C@H](OC(=O)c2ccccc2)[C@H]1OC(=O)c1ccccc1` [Compound 100β, glucosylbetamethasone (benzoyl derivative)], for which the figures for the inhibition in vivo at 0.01 mg in data set [1] (setting [4]) and in data set [1] (setting [5]) were 11 ± 6.5% and 20.8 ± 11.7%, respectively. For the same molecule, the values for the inhibition in vivo at 0.1 mg in data set [1] (setting [6]) and in data set [1] (setting [7]) were 4.1 ± 11.3% and 17.5 ± 5.9%, respectively. In addition, the figures for the inhibition in vivo at 1 mg in data set [1] (setting [2]) and in data set [1] (setting [3]) were 60.5 ± 5.8% and 69.4 ± 6.7%, respectively.

For `C[C@@H]1C[C@H]2[C@@H]3C[C@H](F)C4=CC(=O)C=C[C@]4(C)[C@@]3(F)[C@@H](O)C[C@]2(C)[C@H]1C(=O)CO[C@@H]1O[C@H](COC(=O)c2ccccc2)[C@@H](OC(=O)c2ccccc2)[C@H](OC(=O)c2ccccc2)[C@H]1OC(=O)c1ccccc1` [Compound 110β, glucosyldiflucortolone (benzoyl derivative)], the inhibition in vivo at 0.01 mg in data set [1] (setting [4]) came out at 16.8 ± 7.1%; in data set [1] (setting [5]) it was 34.4 ± 8.9%. Moreover, the inhibition in vivo at 0.1 mg in data set [1] (setting [6]) turned out to be 58.7 ± 1.4%; in data set [1] (setting [7]), 79.6 ± 8.5%. For the same molecule, the inhibition in vivo at 1 mg in data set [1] (setting [2]) worked out at 70.3 ± 1.9%; in data set [1] (setting [3]), 97.2 ± 0.5%.

Consider `C[C@@H]1C[C@H]2[C@@H]3C[C@H](F)C4=CC(=O)C=C[C@]4(C)[C@@]3(F)[C@@H](O)C[C@]2(C)[C@H]1C(=O)CO[C@@H]1O[C@H](COC(=O)c2ccc(Cl)cc2)[C@@H](OC(=O)c2ccc(Cl)cc2)[C@H](OC(=O)c2ccc(Cl)cc2)[C@H]1OC(=O)c1ccc(Cl)cc1` [Compound 112β, glucosyldiflucortolone (p-chlorobenzoyl derivative)], for which the inhibition in vivo at 0.01 mg came out at 15.9 ± 6.9% in data set [1] (setting [4]) and 36.1 ± 9.2% in data set [1] (setting [5]). For the same molecule, the inhibition in vivo at 0.1 mg in data set [1] (setting [6]) came out at 27.1 ± 2.4%; in data set [1] (setting [7]) it was 43.7 ± 2.5%. Besides, the inhibition in vivo at 1 mg in data set [1] (setting [2]) stood at 61.3 ± 2.2%; in data set [1] (setting [3]), 93.1 ± 1.6%.

Turning to `CC(=O)OC[C@H]1O[C@@H](OCC(=O)[C@H]2[C@H](C)C[C@H]3[C@@H]4C[C@H](F)C5=CC(=O)C=C[C@]5(C)[C@@]4(F)[C@@H](O)C[C@@]32C)[C@H](OC(C)=O)[C@@H](OC(C)=O)[C@@H]1OC(C)=O` [Compound 113β, glucosyldiflucortolone (acetyl derivative)], the figures for the inhibition in vivo at 0.01 mg in data set [1] (setting [4]) and in data set [1] (setting [5]) were 47.4 ± 11% and 90.5 ± 6.6%, respectively. Further, the inhibition in vivo at 0.1 mg worked out at 60.8 ± 9.3% in data set [1] (setting [6]) and 97.1 ± 0.5% in data set [1] (setting [7]). Besides, the inhibition in vivo at 1 mg came to 90.5 ± 0.6% in data set [1] (setting [2]) and 97.5 ± 0.7% in data set [1] (setting [3]).

Consider `CCCCC(=O)OCC(=O)[C@H]1[C@H](C)C[C@H]2[C@@H]3C[C@H](F)C4=CC(=O)C=C[C@]4(C)[C@@]3(F)[C@@H](O)C[C@@]21C` [Diflucortolone valerate, reference compound], for which, in data set [1] (setting [8]), the inhibition in vivo at 0.01 mg stood at 12.8 ± 5.1% and the inhibition in vivo at 1 mg turned out to be 66 ± 7.1%.

On to `CCCC(=O)O[C@]1(C(=O)COC(C)=O)CC[C@H]2[C@@H]3C[C@H](F)C4=CC(=O)C=C[C@]4(C)[C@@]3(F)[C@@H](O)C[C@@]21C` [Diflupredonate, reference compound], for which the “Effects on thymus weight, per cent of inhibition over the control thymus weight” value was determined as 14.7 ± 10.4 per cent in data set [1] (0.01 mg/rat, 7 days); 71.2 ± 2.9 per cent in data set [1] (0.1 mg/rat, 7 days); 71.8 ± 3.2 per cent in data set [1] (1.0 mg/rat, 7 days). Also, the results for the inhibition in vivo at 0.01 mg in data set [1] (setting [4]) and in data set [1] (setting [5]) were -11 ± 23.1% and 17.4 ± 13.5%, respectively. Besides, the inhibition in vivo at 0.1 mg in data set [1] (setting [6]) worked out at 35 ± 10.3%; in data set [1] (setting [7]), 65.3 ± 12.1%. The inhibition in vivo at 1 mg in data set [1] (setting [2]) stood at 78.8 ± 5%; in data set [1] (setting [3]), 96.2 ± 1.2%.

For the molecule “Diflurasone acetate [reference compound]”, the “Effects on granuloma weight, per cent of inhibition over the control” value in data set [1] (0.01 mg/rat, 7 days) was -13.1 ± 13.3 per cent; in data set [1] (0.1 mg/rat, 7 days), 4.0 ± 10.5 per cent; in data set [1] (1.0 mg/rat, 7 days) it was 11.7 ± 12.4 per cent.
